In patent US12404283B2, “c-MYC mRNA translation modulators and uses thereof in the treatment of cancer” (Anima Biotech Inc., priority 2022, dated 2025):

Tested on: c-Myc
Test: c-Myc immunofluorescence assay
Type: cell-based, human
Settings: A549 cells, 24 hours treatment, anti-c-Myc immunofluorescence
Method in brief: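 A549 cells grown 48 h, exposed 24 h to rising compound concentrations, then fixed, permeabilised and stained for c-Myc plus DAPI. Nuclear-segmented c-Myc fluorescence quantified by high-content imaging at 20×; EC50 from logistic dose–response fits.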

Compound | Myc Efficacy (−LogEC50)
O=C(NCCCN1CCC(F)CC1)c1ccc2c(c1)sc1nc(-c3cc(F)c(C4CCCN4)c(Cl)c3)cn12 (centres unmarked) [compound 485, 2-(3-chloro-5-fluoro-4-(pyrrolidin-2-yl)phenyl)-N-(3-(4-fluoropiperidin-1-yl)propyl)benzo[d]imidazo[2,1-b]thiazole-7-carboxamide] | +++ (+++ ≥6)
O=C1CCCC(c2ccc(-c3cn4c(n3)sc3cc(C(=O)NCCCN5CCC(F)CC5)ccc34)c(F)c2)N1 (centres unmarked) [compound 486] | ++ (++ ≥5 and <6)
O=C(NCCCN1CCC(F)CC1)c1ccc2c(c1)sc1nc(-c3ccc(-c4ccn[nH]4)cc3F)cn12 [compound 487, 2-(2-fluoro-4-(1H-pyrazol-5-yl)phenyl)-N-(3-(4-fluoropiperidin-1-yl)propyl)benzo[d]imidazo[2,1-b]thiazole-7-carboxamide] | ++ (++ ≥5 and <6)
COc1cc(-c2cn3c(n2)sc2cc(C(=O)NCCCN4CCC(F)CC4)ccc23)c(F)cc1C1CCCN1 (centres unmarked) [compound 489, 2-(2-fluoro-5-methoxy-4-(pyrrolidin-2-yl)phenyl)-N-(3-(4-fluoropiperidin-1-yl)propyl)benzo[d]imidazo[2,1-b]thiazole-7-carboxamide] | ++ (++ ≥5 and <6)
Cc1cc(-c2cn3c(n2)sc2cc(C(=O)NCCCN4CCC(F)CC4)ccc23)ccn1 [compound 495, N-(3-(4-fluoropiperidin-1-yl)propyl)-2-(2-methylpyridin-4-yl)benzo[d]imidazo[2,1-b]thiazole-7-carboxamide] | +++ (+++ ≥6)
NC(=O)c1ccc2c(c1)sc1nc(-c3ccc([C@@H]4C[C@H](O)CN4)cc3F)cn12 [compound 520, 2-(2-fluoro-4-((2S,4S)-4-hydroxypyrrolidin-2-yl)phenyl)benzo[d]imidazo[2,1-b]thiazole-7-carboxamide] | ++ (++ ≥5 and <6)
CNC(=O)c1ccc2c(c1)sc1nc(-c3ccc([C@@H]4C[C@H](O)CN4)cc3F)cn12 [compound 521, 2-(2-fluoro-4-((2S,4S)-4-hydroxypyrrolidin-2-yl)phenyl)-N-methylbenzo[d]imidazo[2,1-b]thiazole-7-carboxamide] | +++ (+++ ≥6)
CN1CC[C@@H](NC(=O)c2ccc3c(c2)sc2nc(-c4ccc([C@@H]5CCCN5)cc4F)cn23)[C@@H](F)C1 [compound 526, N-((3S,4R)-3-fluoro-1-methylpiperidin-4-yl)-2-(2-fluoro-4-(pyrrolidin-2-yl)phenyl)benzo[d]imidazo[2,1-b]thiazole-7-carboxamide] | ++ (++ ≥5 and <6)
CN1CCC(NC(=O)c2ccc3c(c2)sc2nc(-c4ccc(C5CCNCC5)cc4F)cn23)CC1 [compound 527, 2-(2-fluoro-4-(piperidin-4-yl)phenyl)-N-(1-methylpiperidin-4-yl)benzo[d]imidazo[2,1-b]thiazole-7-carboxamide] | +++ (+++ ≥6)
CN1CCC(NC(=O)c2ccc3c(c2)sc2nc(-c4ccc(C5(O)CCNCC5)cc4F)cn23)CC1 [compound 528, 2-(2-fluoro-4-(4-hydroxypiperidin-4-yl)phenyl)-N-(1-methylpiperidin-4-yl)benzo[d]imidazo[2,1-b]thiazole-7-carboxamide] | +++ (+++ ≥6)
CN1CCC(NC(=O)c2ccc3c(c2)sc2nc(-c4ccc(C5(O)CCNC5)cc4F)cn23)CC1 (centres unmarked) [compound 530, 2-(2-fluoro-4-(3-hydroxypyrrolidin-3-yl)phenyl)-N-(1-methylpiperidin-4-yl)benzo[d]imidazo[2,1-b]thiazole-7-carboxamide] | +++ (+++ ≥6)
CN1C2CCC1CC(NC(=O)c1ccc3c(c1)sc1nc(-c4ccc([C@@H]5CCCN5)cc4F)cn13)C2 (some centres unmarked) [compound 531, 2-(2-fluoro-4-(pyrrolidin-2-yl)phenyl)-N-(8-methyl-8-azabicyclo[3.2.1]octan-3-yl)benzo[d]imidazo[2,1-b]thiazole-7-carboxamide] | ++ (++ ≥5 and <6)
NC(=O)c1ccc2c(c1)sc1nc(-c3ccc(C4CC(C(F)F)CN4)cc3F)cn12 (centres unmarked) [compound 540, 2-(4-(4-(difluoromethyl)pyrrolidin-2-yl)-2-fluorophenyl)benzo[d]imidazo [2,1-b]thiazole-7-carboxamide] | +++ (+++ ≥6)
CN1CCC(NC(=O)c2ccc3c(c2)sc2nc(-c4ccc(C5CC(C#N)CN5)cc4F)cn23)CC1 (centres unmarked) [compound 541, 2-(4-(4-cyanopyrrolidin-2-yl)-2-fluorophenyl)-N-(1-methylpiperidin-4-yl)benzo[d]imidazo[2,1-b]thiazole-7-carboxamide] | +++ (+++ ≥6)
O=C(NC1COCOC1)c1ccc2c(c1)sc1nc(-c3ccc(C4CCCN4)cc3F)cn12 (centres unmarked) [compound 545, N-(1,3-dioxan-5-yl)-2-(2-fluoro-4-(pyrrolidin-2-yl)phenyl)benzo[d]imidazo[2,1-b]thiazole-7-carboxamide] | +++ (+++ ≥6)
CN1CCC(NC(=O)c2ccc3c(c2)sc2nc(-c4ccc(C5CCNCC5O)cc4F)cn23)CC1 (centres unmarked) [compound 546, 2-(2-fluoro-4-(3-hydroxypiperidin-4-yl)phenyl)-N-(1-methylpiperidin-4-yl)benzo[d]imidazo[2,1-b]thiazole-7-carboxamide] | +++ (+++ ≥6)
O=C(NCCCN1CCC(F)CC1)c1ccc2c(c1)sc1nc(-c3cc4c(cc3F)CCN4)cn12 [compound 601, 2-(5-fluoroindolin-6-yl)-N-(3-(4-fluoropiperidin-1-yl)propyl)benzo[d]imidazo[2,1-b]thiazole-7-carboxamide] | +++ (+++ ≥6)
N-(2- (dimethylamino)propyl)-2- (4- (methylcarbamoyl)phenyl) benzo[d]imidazo[2,1-b] thiazole-7-carboxamide [compound 239] | + (+ >3 and <5)

Tested on: A549 cells
Test: Metabolic labeling (L-Azidohomoalanine) of global protein synthesis in A549 cells
Type: cell-based, human
Settings: not given
Source text: FIG. 2 depicts selective regulation of c-Myc translation. […] In gray, cell nuclei stained with DAPI; in yellow, L-Azidohomoalanine (AHA) metabolic labeling.

Compound | global protein synthesis (AHA metabolic labeling)
C[C@@H]1C[C@@H]([C@H](O)CC2CC(=O)NC(=O)C2)C(=O)[C@@H](C)C1 [cycloheximide] | total inhibition

Tested on: global translation
Test: Metabolic labeling assay (global translation, modified methionine incorporation)
Type: cell-based, human
Settings: A549 cells, 4 hour pulse, FIG. 2
Method: A549 cells were incubated with active compounds and metabolically labelled with fluorescent methionine for a 4 hour pulse (click-chemistry modified methionine). Cells were fixed and newly synthesized proteins detected by using click-chemistry with a fluorescent detector (FIG. 2).
A549 cells were seeded at 3,200 cells per well in complete culture medium. Plates were incubated at 37° C., 5% CO2 overnight. After 48 hours of incubation, the growth medium was aspirated, and cells were washed three times with HBSS. Metabolic labeling medium DMEM (-Cys-Met), containing 10% dialyzed FBS, 10% pencillin-streptomycin and 1% L-glutamine was added to the cells for 30 min. Then medium was replaced by metabolic labeling medium containing 25 μM L-Azidohomoalanine (AHA, ThermoFisher) and tested compounds at a final concentration of 30 μM, and cells were incubated for 4 hours at 37° C., 5% CO2. Cells were washed by HBSS at 37° C. for 15 min before fixing with 4% paraformaldehyde. Cells were washed twice with 3% BSA in PBS before permeabilization with 0.5% Triton X-100 in PBS for 20 min. The AHA staining with Alexa Fluor™ 555 alkyne was performed according to the manufacturer protocol. Images were captured with Operetta microscope (Perkin Elmer) using ×20 high NA objective lens.

Compound | incorporation of modified methionine (global translation)
C[C@@H]1C[C@@H]([C@H](O)CC2CC(=O)NC(=O)C2)C(=O)[C@@H](C)C1 [cycloheximide] | completely reduced incorporation of modified methionine
